Values quoted from earlier work as cited in patent US20250381170A1, “Low Concentration Delivery of an Ergoline Derivative for Treatment of a Headache” (Relevale, Inc., priority 2021, published 2025).

What was measured:
[1] = within 24 hours after treatment; sumatriptan-treated patients
[2] = oral dosage forms
[3] = tested on: noradrenaline α, receptors
dopamine D3 receptors = dopamine D3 receptors (Homo sapiens, UniProt P35462)
dopamine D2L receptors = dopamine D2L receptors (Homo sapiens, UniProt P14416)
dopamine D2L receptors, sequence (P14416 whole entry): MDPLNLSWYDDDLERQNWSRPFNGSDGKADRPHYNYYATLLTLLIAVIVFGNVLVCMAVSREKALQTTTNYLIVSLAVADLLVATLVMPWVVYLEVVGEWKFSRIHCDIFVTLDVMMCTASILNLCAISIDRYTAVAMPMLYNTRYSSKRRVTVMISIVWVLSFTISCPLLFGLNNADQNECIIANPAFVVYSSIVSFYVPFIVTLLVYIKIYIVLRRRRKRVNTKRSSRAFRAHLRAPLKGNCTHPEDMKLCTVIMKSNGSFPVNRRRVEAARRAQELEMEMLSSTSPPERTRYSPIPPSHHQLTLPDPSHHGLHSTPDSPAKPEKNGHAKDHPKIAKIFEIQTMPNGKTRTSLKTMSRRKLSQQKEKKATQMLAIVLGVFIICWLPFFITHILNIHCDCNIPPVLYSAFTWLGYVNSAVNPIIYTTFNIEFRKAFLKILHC

5-HT1Dα receptors = 5-HT1Dα receptors (Homo sapiens, UniProt P28221)
5-HT1Dα receptors, sequence (P28221 whole entry): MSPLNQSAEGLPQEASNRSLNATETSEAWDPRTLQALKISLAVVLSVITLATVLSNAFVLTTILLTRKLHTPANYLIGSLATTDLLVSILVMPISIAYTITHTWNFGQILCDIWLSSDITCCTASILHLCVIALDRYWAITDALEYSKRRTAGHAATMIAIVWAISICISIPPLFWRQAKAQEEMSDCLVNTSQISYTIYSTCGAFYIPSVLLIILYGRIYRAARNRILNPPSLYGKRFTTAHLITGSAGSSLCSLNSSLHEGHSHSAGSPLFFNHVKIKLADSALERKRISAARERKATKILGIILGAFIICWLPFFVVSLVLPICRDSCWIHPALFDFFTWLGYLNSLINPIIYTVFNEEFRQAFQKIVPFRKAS

[4] = molecular target: T1, serotonin 5-HT2C receptors (Homo sapiens, UniProt P28335)
T1 sequence (P28335 33-458): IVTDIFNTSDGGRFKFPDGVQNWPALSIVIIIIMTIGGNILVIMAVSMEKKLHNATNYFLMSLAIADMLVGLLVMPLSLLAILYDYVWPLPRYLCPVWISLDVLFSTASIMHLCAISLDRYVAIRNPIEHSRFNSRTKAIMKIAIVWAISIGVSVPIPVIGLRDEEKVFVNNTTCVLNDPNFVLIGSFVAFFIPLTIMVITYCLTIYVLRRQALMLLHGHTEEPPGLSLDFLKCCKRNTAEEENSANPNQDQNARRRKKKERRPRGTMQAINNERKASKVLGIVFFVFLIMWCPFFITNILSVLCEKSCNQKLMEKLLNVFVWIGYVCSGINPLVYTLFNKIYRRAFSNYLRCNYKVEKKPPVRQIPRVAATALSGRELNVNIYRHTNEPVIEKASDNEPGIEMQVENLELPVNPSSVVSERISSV

[5] = molecular target: T2, serotonin 5-HT1A receptors (Homo sapiens, UniProt P08908)
T2 sequence (P08908 1-422): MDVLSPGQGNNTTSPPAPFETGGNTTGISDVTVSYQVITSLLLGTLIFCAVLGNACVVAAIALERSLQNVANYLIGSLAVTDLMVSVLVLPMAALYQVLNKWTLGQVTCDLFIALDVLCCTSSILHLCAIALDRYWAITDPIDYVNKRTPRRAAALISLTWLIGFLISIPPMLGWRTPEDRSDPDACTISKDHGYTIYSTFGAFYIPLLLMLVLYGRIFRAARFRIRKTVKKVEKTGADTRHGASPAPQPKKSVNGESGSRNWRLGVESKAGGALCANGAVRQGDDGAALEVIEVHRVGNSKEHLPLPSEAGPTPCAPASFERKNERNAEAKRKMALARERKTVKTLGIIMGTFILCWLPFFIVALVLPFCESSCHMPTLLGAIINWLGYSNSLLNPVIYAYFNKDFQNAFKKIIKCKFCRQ

5-HT1Dβ receptors = 5-HT1Dβ receptors (Homo sapiens, UniProt P28222)
5-HT1Dβ receptors, sequence (P28222 whole entry): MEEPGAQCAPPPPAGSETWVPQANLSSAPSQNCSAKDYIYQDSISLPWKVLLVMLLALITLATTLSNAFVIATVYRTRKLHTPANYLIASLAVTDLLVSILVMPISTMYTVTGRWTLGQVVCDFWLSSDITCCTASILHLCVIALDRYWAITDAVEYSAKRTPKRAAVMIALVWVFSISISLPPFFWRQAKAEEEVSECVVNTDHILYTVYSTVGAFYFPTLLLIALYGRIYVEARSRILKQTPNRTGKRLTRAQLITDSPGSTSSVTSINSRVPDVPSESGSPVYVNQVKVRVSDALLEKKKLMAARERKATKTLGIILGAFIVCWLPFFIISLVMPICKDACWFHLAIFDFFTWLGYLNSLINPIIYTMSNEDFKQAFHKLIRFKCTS

[6] = molecular target: T3, noradrenaline α2A receptors (Homo sapiens, UniProt P08913)
T3 sequence (P08913 1-465): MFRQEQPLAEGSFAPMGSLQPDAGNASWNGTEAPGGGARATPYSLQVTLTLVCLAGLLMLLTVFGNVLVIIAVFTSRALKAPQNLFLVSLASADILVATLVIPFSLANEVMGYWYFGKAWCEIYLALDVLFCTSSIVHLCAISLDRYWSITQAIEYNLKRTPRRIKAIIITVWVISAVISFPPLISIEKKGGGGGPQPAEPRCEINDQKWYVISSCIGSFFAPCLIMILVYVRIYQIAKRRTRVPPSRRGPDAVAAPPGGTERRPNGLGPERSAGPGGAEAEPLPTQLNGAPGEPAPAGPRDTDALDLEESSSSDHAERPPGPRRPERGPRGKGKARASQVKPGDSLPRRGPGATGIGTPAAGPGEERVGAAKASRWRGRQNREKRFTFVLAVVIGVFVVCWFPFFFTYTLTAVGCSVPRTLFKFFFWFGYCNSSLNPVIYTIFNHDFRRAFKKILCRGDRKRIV

dopamine D3 receptors, sequence (P35462 whole entry): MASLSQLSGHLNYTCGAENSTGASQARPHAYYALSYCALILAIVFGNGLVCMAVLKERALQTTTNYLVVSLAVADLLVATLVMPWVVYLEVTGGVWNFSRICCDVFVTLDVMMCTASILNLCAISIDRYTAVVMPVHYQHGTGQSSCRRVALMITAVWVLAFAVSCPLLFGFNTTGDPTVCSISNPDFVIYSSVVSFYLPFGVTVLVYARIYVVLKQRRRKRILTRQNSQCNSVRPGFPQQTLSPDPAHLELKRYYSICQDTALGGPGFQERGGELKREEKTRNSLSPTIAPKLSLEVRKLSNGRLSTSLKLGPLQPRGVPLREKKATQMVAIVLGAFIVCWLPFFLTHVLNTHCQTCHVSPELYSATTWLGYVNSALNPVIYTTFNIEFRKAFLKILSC

CNS(=O)(=O)Cc1ccc2[nH]cc(CCN(C)C)c2c1 [sumatriptan]
patients with headache reoccurrence [1]: 45%

CN1C[C@H](C(=O)N[C@]2(C)O[C@@]3(O)[C@@H]4CCCN4C(=O)[C@H](Cc4ccccc4)N3C2=O)C[C@@H]2c3cccc4[nH]cc(c34)C[C@H]21 [DHE, Dihydroergotamine]
absorption through the gut [2]: poorly absorbed
binding affinity [3]: high affinity
binding affinity (dopamine D3 receptors): high affinity
binding affinity (dopamine D2L receptors): high affinity
binding affinity (5-HT1Dα receptors): high affinity
binding affinity [4]: high affinity
binding affinity [5]: high affinity
binding affinity (5-HT1Dβ receptors): high affinity
binding affinity [6]: high affinity
